Test results published in patent US10000535B2, “Template-fixed peptidomimetics” (POLYPHOR LTD., priority 2007, dated 2018).
Non-standard residues stand in square brackets, D forms with d. Residues, ends and D or L forms follow the SMILES beside them. Aze = O=C(O)[C@@H]1CCN1

Experiments:
Type in all cases: cell-based
CCR7 = molecular target: T1, CCR7 (Homo sapiens, UniProt P32248); experiment: Selectivity calcium flux assay, chemokine receptor panel; details: at 10 μM
T1 sequence (P32248 25-378): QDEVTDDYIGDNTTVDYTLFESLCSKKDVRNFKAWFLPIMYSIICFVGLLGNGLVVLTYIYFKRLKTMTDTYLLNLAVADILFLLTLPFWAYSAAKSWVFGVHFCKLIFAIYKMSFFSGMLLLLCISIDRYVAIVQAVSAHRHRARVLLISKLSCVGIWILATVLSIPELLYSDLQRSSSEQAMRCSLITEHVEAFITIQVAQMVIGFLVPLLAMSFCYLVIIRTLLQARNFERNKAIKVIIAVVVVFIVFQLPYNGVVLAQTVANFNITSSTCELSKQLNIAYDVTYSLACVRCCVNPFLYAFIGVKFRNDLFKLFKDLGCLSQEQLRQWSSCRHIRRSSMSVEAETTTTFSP
Protocol: (§1) Selectivity was measured using the calcium flux assay on a panel of human chemokine receptor bearing cell lines (CCR1, CCR2, CCR3, CCR4, CCR5, CCR6, CCR7, CCR8, CCR9, CCR10, CXCR1, CXCR2, CXCR2, CXCR4, CXCR6 and CXCCR1) using the same method as above

CCR1 = molecular target: T2, CCR1 (Homo sapiens, UniProt P32246); experiment: as above; details: at 10 μM
T2 sequence (P32246 1-355): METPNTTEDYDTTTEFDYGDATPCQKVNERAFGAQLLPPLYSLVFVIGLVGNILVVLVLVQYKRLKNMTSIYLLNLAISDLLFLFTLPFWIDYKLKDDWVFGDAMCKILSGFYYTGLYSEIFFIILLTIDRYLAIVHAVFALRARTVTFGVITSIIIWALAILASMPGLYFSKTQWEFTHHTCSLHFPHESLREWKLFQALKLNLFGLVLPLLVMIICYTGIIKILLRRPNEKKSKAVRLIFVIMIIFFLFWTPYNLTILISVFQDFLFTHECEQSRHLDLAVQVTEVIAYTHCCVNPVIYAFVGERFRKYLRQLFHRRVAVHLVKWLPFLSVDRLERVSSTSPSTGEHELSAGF
Protocol: as §1

CCR9 = molecular target: T3, CCR9 (Homo sapiens, UniProt P51686); experiment: as above; details: at 10 μM
T3 sequence (P51686 1-369): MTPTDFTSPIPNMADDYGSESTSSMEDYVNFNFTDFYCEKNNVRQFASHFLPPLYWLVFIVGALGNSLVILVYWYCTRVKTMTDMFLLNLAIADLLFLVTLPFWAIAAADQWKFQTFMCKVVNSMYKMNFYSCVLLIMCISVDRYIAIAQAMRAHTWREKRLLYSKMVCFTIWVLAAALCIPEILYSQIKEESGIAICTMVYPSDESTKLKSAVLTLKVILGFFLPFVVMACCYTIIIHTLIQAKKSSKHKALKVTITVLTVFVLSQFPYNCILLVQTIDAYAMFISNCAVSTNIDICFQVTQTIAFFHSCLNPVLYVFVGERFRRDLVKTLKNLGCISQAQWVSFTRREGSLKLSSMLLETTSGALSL
Protocol: as §1

CXCR4 chemokine receptor = CXCR4 chemokine receptor (Homo sapiens, UniProt P61073); experiment: as above; details: at 10 μM
Protocol: as §1

human CCR10 = molecular target: T4, human CCR10 (Homo sapiens, UniProt P46092); experiment: Calcium flux antagonism assay with human CCL27; details: at 10 μM
T4 construct: expressed in transfected cells; host or cells: mouse pre-B cell line 300-19
T4 sequence (P46092 1-362): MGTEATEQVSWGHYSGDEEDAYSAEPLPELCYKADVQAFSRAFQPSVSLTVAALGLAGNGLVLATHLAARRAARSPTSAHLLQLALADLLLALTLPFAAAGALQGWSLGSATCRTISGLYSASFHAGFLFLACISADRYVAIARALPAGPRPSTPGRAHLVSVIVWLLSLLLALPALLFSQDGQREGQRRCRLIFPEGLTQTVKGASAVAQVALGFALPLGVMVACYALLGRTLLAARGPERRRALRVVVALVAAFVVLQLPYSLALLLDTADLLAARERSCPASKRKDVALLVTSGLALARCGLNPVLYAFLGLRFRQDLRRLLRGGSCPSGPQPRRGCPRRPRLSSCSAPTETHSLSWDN
Protocol: (§2) The mouse pre-B cell line 300-19 was stably transfected with the cDNA encoding the human UTR2 receptor (GenBank Acc#NM_018949), and expression was confirmed with a positive calcium signal in response to human urotensin (Sigma Aldrich). Increases in intracellular calcium were monitored using a Flexstation 384 (Molecular Devices, Sunnyvale, Calif.). The cells were batch loaded with the Calcium 3 Assay kit (Molecular Devices) in assay buffer (Hanks Balanced salt solution, HBSS, 20 mM HEPES, pH 7.4, 0.1% BSA) for 1 h at room temperature and labeled cells were dispensed into either black 96 well or 384 well assay plates (Greiner). Calcium mobilization induced by urotensin or compounds was measured in the Flexstation 384 (excitation, […]) for 70 seconds. Agonist activity was determined by direct addition of ligand or peptides, while antagonists were identified by pre-incubation of compounds with cells prior to urotensin addition. A dose response curve (compound concentration versus % maximum response for urotensin) was determined for each active agonist and antagonist and was fitted to a four parameter logistic equation using SoftmaxPro 4.6 (Molecular Devices), from which EC50% and IC50% values were calculated.
Peptides for CCR10 (Marchese et. al. 1994, Homey et. al.) and CXCR3 (Loetscher et. al. 1998, Marchese et. al. 1995) antagonism were assayed in a mouse pre-B cell line 300-19 stably transfected with either human CCR10 or CXCR3 (Marchese et. al. 1995). Antagonism at each receptor was measured with a calcium flux assay in these cells as described above for UTR2 assays using human CCL27 and human CXCL10 (Cole et. al.) for CCR10 and CXCR3 respectively.
as §1

human CXCR3 = molecular target: T5, human CXCR3 (Homo sapiens, UniProt P49682); experiment: Calcium flux antagonism assay with human CXCL10; details: 300-19 cells with human CXCR3, read-out: IC50% (μM) ± SD, CXCR3 receptor
T5 construct: expressed in transfected cells; host or cells: mouse pre-B cell line 300-19
T5 sequence (P49682 1-368): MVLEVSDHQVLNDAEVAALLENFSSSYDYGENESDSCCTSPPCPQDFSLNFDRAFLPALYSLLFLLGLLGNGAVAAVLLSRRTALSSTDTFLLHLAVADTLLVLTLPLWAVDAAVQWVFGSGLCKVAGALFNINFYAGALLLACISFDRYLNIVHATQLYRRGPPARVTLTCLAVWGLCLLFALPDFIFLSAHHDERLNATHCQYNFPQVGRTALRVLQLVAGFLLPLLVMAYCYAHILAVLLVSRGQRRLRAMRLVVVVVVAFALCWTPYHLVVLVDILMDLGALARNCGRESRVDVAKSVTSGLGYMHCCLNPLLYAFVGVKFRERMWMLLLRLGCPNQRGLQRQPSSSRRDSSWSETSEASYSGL
Protocol: as §2, with “calculated. […]” for “calculated.”

Chain of CXCR4 chemokine receptor (P61073 whole entry): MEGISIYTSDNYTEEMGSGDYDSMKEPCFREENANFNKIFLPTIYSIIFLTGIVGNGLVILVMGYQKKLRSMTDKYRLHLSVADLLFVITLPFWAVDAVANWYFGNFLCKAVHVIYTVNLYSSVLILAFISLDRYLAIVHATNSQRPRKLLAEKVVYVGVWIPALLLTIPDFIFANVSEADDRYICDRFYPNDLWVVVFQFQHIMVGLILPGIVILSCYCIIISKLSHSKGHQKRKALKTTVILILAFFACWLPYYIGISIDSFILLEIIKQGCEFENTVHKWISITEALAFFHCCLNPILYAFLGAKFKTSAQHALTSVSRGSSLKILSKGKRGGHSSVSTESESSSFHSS

selectivity against CCR7 (CCR7) | selectivity against CCR1 (CCR1) | selectivity against CCR9 (CCR9) | selectivity against CXCR4 chemokine receptor (CXCR4 chemokine receptor) | selectivity against CCR10 (human CCR10) | IC50 (human CXCR3) [µM] | SMILES
highly selective | highly selective | highly selective | highly selective | highly selective | 8.6 | N=C(N)NCCC[C@@H]1NC(=O)[C@H](Cc2c[nH]c3ccccc23)NC(=O)[C@H](Cc2ccc(O)cc2)NC(=O)[C@@H]2CCN2C(=O)[C@H]2CCCN2C(=O)CNC1=O [Example 15] (cyclo(YWRG[dP][Aze]))
highly selective | highly selective | highly selective | highly selective | highly selective | 8.1 | C[C@@H]1NC(=O)[C@H](CCCNC(=N)N)NC(=O)[C@H](Cc2c[nH]c3ccccc23)NC(=O)[C@H](Cc2ccc(O)cc2)NC(=O)[C@@H]2CCN2C(=O)[C@H]2CCCN2C1=O [Example 16] (cyclo(YWRA[dP][Aze]))
